Laboratory results from patent US20090093448A1, “19-NOR-PROGESTERONE FOR CONTRACEPTION” (GRUNENTHAL GMBH, priority 2007, published 2009).
Where a name gives a salt, the structure may show the parent alone.

What was measured:
[1] = target: T1, human progesterone receptor (Homo sapiens, UniProt P06401); assay: Relative binding affinity for the human progesterone receptor; details: for Relative binding affinity to progesterone receptor: progesterone as reference = 100
T1 sequence (P06401 1-933): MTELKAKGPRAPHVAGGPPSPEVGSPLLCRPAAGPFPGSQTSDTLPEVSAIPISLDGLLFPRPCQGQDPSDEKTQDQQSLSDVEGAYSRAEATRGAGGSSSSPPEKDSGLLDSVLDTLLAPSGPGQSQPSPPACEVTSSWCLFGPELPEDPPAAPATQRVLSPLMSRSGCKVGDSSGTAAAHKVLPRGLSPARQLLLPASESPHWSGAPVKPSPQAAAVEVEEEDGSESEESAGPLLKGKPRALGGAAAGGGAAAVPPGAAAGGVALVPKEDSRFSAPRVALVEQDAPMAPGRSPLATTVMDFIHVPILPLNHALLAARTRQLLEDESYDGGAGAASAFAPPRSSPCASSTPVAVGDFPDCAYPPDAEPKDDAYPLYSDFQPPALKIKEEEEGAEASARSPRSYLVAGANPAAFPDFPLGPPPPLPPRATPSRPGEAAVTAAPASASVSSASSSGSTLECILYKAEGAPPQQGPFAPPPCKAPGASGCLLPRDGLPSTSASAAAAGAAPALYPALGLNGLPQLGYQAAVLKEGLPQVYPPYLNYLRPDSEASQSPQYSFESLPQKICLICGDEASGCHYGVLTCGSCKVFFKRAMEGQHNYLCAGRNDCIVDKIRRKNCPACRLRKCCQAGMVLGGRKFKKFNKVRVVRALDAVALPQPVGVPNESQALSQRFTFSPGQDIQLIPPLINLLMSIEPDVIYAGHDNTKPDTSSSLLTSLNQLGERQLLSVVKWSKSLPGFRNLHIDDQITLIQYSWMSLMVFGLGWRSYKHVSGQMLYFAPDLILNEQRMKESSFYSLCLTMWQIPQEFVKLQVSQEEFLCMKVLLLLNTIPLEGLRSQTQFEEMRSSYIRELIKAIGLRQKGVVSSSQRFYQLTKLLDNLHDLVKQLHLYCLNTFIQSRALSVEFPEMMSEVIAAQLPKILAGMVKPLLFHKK

endometrium = assay: McPhail test (progestational proliferation of the endometrium); type: in vivo, rabbits; details: for Mean McPhail Score (max. 4.0): estrone-primed immature female rabbits, five daily doses
Method: Trimegestone sulfate was tested in the McPhail test, which is a test for progesterone and like substances. Immature female rabbits are treated with 150 IU of estrone over a period of 6 days. The test material is then given in five daily subcutaneous doses. Progestational proliferation of the endometrium is noted and the results estimated according to a scale from 0 to 4.0.

| SMILES | relative affinity for the progesterone receptor ([1]; % of the affinity of natural progesterone) [%] | Relative binding affinity to progesterone receptor [1] | Mean McPhail Score (max. 4.0) (endometrium; 0.0001 mg/kg/day s.c.) | Mean McPhail Score (max. 4.0) (endometrium; 0.001 mg/kg/day s.c.) | Mean McPhail Score (max. 4.0) (endometrium; 0.01 mg/kg/day s.c.) | Mean McPhail Score (max. 4.0) (endometrium; 0.1 mg/kg/day s.c.) | Mean McPhail Score (max. 4.0) (endometrium; 1.0 mg/kg/day s.c.) | Mean McPhail Score (max. 4.0) (endometrium; 10.0 mg/kg/day s.c.) | endometrium transforming effects in the McPhail test (endometrium; s.c., 0.0001 to 10.0 mg/kg/day, result in words) |
| --- | --- | --- | --- | --- | --- | --- | --- | --- | --- |
| C[C@H](OS(=O)(=O)O)C(=O)[C@@]1(C)CCC2C3CCC4=CC(=O)CCC4=C3CC[C@@]21C (stereo partly shown) [Trimegestone sulfate, Trimegestone sulfate, pyridinium salt] | 40 | 40 | 0.75 | 0.88 | 2.1 | 3.31 | 2.93 | 3.68 | dose-dependent potent endometrium transforming effects |
| CC(O)C(=O)C1(C)CCC2C3CCC4=CC(=O)CC(O)C4=C3CCC21C (stereo not drawn) [1β-OH trimegestone, 1β-hydroxytrimegestone, reference compound] |  | 64 |  |  |  |  |  |  |  |
| CC(=O)[C@H]1CC[C@H]2[C@@H]3CCC4=CC(=O)CC[C@]4(C)[C@H]3CC[C@]12C [Progesterone] |  |  |  |  |  | 2.25 | 3.75 |  |  |
| CC(O)C(=O)C1(C)CCC2C3CC(O)C4=CC(=O)CCC4=C3CCC21C (stereo not drawn) [6β-OH trimegestone, 6β-hydroxytrimegestone, reference compound] |  | 12 |  |  |  |  |  |  |  |
